From patent US9783527B2, “Indazole ureas and method of use” (AbbVie Inc., priority 2014, dated 2017)

Experiments:
human Nav1.7 = human Nav1.7 (Homo sapiens (Human), UniProt Q15858); assay: FRET-based membrane potential assay, recombinant human sodium channel Nav1.7; format: cell-based; conditions: HEK293 cells stably expressing recombinant human Nav1.7; depolarization with veratridine (EC80) + scorpion venom
How it was run: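 IC50 derived by four-parameter Hill fit of percent inhibition of depolarization, measured as peak F440-480/F565-625 ratio over baseline. Stable human Nav1.7 HEK293 cells, dye-loaded with CC2-DMPE and DiSBAC2(3)/VABSC-1 at room temperature, received compound 3 min ahead of veratridine (EC80) plus scorpion venom.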

human Nav1.8 = human Nav1.8 (Homo sapiens (Human), UniProt Q9Y5Y9); assay: FRET-based membrane potential assay, recombinant human sodium channel Nav1.8; format: cell-based; conditions: HEK293 cells stably expressing recombinant human Nav1.8; depolarization with veratridine (EC80) + scorpion venom
Sequence of human Nav1.8 (Q9Y5Y9 whole entry): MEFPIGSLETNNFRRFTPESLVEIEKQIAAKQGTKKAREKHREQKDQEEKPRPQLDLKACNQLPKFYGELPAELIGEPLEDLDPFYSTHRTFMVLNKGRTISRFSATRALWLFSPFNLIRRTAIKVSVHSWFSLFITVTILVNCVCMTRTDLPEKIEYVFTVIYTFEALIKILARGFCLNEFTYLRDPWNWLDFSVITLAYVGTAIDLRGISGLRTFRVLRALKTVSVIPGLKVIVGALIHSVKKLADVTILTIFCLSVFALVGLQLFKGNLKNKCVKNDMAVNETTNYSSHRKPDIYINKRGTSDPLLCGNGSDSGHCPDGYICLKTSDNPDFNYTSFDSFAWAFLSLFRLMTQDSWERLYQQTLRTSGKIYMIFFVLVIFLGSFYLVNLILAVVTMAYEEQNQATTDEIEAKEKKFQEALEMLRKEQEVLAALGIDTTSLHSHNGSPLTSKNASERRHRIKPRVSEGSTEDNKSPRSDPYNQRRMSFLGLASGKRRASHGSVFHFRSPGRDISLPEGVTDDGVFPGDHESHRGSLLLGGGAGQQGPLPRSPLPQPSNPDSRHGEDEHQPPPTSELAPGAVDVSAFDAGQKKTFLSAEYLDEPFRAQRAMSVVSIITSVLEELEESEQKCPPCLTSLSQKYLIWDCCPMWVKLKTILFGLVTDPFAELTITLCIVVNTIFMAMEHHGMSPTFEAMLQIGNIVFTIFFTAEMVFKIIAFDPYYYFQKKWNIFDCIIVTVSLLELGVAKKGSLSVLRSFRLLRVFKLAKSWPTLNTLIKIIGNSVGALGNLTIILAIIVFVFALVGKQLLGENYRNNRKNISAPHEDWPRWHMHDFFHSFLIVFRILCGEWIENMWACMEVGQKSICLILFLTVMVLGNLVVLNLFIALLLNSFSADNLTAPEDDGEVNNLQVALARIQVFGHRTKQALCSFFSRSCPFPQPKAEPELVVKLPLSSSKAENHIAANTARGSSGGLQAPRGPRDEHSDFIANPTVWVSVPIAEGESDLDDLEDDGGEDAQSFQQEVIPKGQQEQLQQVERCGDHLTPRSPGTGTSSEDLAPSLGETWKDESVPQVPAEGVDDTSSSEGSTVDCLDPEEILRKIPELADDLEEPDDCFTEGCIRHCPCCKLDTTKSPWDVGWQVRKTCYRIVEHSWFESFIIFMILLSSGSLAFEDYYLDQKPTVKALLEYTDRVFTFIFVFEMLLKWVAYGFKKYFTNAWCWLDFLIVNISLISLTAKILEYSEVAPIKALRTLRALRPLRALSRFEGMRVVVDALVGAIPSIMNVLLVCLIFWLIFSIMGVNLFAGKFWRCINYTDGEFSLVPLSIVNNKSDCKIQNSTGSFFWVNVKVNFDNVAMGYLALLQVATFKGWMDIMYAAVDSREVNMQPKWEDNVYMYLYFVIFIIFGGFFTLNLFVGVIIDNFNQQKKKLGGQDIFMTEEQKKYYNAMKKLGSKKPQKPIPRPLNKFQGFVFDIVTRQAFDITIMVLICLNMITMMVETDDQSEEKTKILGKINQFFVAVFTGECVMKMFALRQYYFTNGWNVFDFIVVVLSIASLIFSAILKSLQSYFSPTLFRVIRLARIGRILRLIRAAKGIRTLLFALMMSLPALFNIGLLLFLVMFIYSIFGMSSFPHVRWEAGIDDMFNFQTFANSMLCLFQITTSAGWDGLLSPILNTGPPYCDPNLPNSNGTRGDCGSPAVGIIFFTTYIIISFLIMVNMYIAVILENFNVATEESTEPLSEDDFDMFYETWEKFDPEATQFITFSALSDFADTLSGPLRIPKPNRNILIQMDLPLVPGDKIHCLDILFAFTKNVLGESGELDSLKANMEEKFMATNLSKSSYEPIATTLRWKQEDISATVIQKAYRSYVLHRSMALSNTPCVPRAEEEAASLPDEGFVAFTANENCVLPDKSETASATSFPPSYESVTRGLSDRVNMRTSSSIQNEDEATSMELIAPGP
Description: FRET-Based Membrane Potential Assays.
Recombinant, Human Sodium Channel, Nav1.8.
Two days prior to the experiment, frozen HEK293 cells stably expressing recombinant human Nav1.8 (Essen, Ann Arbor, Mich.) were quickly thawed and plated at 22,500 cells/well in growth medium [MEM (Invitrogen #11095) with 10% FBS (Invitrogen #10082), 1 mM sodium pyruvate (Invitrogen, #C11360), 10 units/mL penicillin/10 U/mL streptomycin/29.2 μg/mL glutamine ((PSG 1%, Invitrogen #10378), 400 μg/mL zeocin (Invitrogen #R250) in black-walled, clear-bottom 384-well poly-D-lysine-coated assay plates (Greiner Bio-One, Frickenhausen, Germany) and incubated in a humidified 5% CO2 incubator at 37° C. On the day of the assay, medium was removed by aspiration, and cells were washed with assay buffer [HBSS (Invitrogen, Carlsbad, Calif.) containing 20 mM HEPES (Invitrogen, Carlsbad, Calif.)]. After washing, 30 μL assay buffer containing the fluorescent voltage-sensor probe CC2-DMPE (Invitrogen, Carlsbad, Calif.) at 20 μM and 0.01% pluronic F-127 (Invitrogen, Carlsbad, Calif.) was added to the cells. Cells were incubated for 40 minutes at room temperature in the dark. Following the incubation, the cells were washed and 30 μL assay buffer containing 2.5 μM DiSBAC2(3) substrate (Invitrogen, Carlsbad, Calif.) and 0.5 mM VABSC-1 (Invitrogen, Carlsbad, Calif.) was added to the cells. The cells were incubated for 60 minutes at room temperature in the dark. Fluorescence readings were made using a FLIPR®^TETRA (Molecular Devices, Sunnyvale Calif.) equipped with voltage-sensor probe optics. The depolarizing agent, veratridine (Sigma-Aldrich, St. Louis, Mo.), was made up at 3× concentrations in assay buffer containing 1 mg/mL scorpion venom (SVqq, from Leiurus quinquestriatus; Sigma-Aldrich, St. Louis, Mo.). The assay agonist/opener concentration was determined each day using a 6-point veratridine concentration curve in duplicate, tested with three concentrations of tetracaine (0.1, 0.06, 0.01 μM all in 0.03% dimethyl sulfoxide) and 0.03% dimethyl sulfoxide control in assay buffer. […] Test compounds in the daughter plate were diluted to (˜3×) solutions in assay buffer immediately before assaying. Using the FLIPR®^TETRA, 20 μL of the (3×) compound solutions were first added to the cells, then 20 μL of depolarizing solution (3×EC80 veratridine+SVqq) were added 3 minutes later to activate the channel. Changes in fluorescence were measured at wavelengths of 440-480 nm and 565-625 nm over the course of the experimental run. Membrane depolarization was expressed as a ratio of the maximum F440-480 nm/F565-625 nm reading above average baseline F440-480 nm/F565-625 nm reading. IC50 values were calculated from curve fits of the ratio data using a four-parameter logistic Hill equation (Accelrys Assay Explorer 3.3 Client, Accelrys, San Diego, Calif.) with percent inhibition plotted against compound concentration.

Sequence of human Nav1.7 (Q15858 whole entry): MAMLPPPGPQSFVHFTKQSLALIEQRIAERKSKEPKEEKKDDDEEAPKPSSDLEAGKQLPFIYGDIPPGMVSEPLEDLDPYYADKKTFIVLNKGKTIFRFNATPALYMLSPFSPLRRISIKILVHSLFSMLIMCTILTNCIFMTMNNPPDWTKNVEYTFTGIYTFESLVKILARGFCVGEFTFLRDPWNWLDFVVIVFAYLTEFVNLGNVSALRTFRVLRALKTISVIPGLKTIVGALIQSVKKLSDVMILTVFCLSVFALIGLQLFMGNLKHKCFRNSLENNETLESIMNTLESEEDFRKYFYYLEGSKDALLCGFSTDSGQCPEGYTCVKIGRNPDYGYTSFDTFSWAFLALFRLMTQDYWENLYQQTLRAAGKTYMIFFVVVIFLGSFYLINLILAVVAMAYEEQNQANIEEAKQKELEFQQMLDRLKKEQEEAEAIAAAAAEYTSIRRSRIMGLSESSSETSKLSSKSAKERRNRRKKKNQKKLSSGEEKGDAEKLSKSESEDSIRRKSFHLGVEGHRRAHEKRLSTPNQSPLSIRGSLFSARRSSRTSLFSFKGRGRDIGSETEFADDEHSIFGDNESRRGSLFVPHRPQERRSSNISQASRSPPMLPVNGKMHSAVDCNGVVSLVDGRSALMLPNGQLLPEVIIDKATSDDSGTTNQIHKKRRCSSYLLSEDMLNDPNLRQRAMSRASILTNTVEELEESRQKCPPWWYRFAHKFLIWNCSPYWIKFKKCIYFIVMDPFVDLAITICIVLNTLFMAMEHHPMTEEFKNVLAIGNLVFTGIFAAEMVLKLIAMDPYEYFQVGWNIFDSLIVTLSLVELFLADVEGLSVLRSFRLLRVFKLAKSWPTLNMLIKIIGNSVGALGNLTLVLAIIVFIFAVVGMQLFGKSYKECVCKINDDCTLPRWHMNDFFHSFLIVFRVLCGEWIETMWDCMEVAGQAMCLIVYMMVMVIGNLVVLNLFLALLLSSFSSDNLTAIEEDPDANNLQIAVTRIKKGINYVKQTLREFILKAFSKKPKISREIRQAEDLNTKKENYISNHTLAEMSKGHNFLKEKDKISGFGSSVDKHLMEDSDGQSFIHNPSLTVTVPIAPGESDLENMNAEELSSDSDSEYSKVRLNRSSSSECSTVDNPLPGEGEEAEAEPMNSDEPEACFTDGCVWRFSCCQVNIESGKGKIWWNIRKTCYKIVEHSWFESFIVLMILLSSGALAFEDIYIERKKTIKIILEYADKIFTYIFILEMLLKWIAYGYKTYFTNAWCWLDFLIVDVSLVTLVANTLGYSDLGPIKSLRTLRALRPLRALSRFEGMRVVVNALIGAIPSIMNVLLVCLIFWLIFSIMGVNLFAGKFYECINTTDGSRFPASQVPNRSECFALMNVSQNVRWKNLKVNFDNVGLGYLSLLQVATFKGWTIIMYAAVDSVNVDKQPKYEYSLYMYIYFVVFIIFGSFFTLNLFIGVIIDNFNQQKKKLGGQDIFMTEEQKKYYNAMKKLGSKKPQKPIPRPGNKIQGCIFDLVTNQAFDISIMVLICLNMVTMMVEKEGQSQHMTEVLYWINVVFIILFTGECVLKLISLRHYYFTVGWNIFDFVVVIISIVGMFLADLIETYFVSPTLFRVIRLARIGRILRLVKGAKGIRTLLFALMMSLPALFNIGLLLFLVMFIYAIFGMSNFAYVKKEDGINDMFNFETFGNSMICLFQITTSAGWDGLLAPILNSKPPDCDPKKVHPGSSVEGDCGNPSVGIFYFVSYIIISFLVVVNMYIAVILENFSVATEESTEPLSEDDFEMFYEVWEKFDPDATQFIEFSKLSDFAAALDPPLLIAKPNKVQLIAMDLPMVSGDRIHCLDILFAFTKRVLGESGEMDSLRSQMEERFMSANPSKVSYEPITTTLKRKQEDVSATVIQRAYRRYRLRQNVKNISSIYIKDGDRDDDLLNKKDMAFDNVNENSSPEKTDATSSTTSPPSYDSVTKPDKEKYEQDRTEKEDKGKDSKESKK

| Structure (SMILES) | IC50 (human Nav1.7) | IC50 (human Nav1.8) |
| --- | --- | --- |
| CC(C)COC(=O)N1CCN(c2cccc3c2cnn3-c2ccccc2F)C1=O [Example 5, isobutyl 3-[1-(2-fluorophenyl)-1H-indazol-4-yl]-2-oxoimidazolidine-1-carboxylate] | 0.166 µM | 0.0572 µM |
| O=C(Cn1ccn(-c2cccc3c2cnn3-c2ccccc2F)c1=O)N1CC[C@H](F)C1 [Example 11, 1-[1-(2-fluorophenyl)-1H-indazol-4-yl]-3-{2-[(3S)-3-fluoropyrrolidin-1-yl]-2-oxoethyl}-1,3-dihydro-2H-imidazol-2-one] | 0.483 µM | 1.47 µM |
| O=C(CN1CCN(c2cccc3c2cnn3-c2ccccc2F)C1=O)N1CCC(F)CC1 [Example 69, 1-[1-(2-fluorophenyl)-1H-indazol-4-yl]-3-[2-(4-fluoropiperidin-1-yl)-2-oxoethyl]imidazolidin-2-one] | 2.95 µM | 4.8 µM |
| O=C(CN1CCN(c2cccc3c2cnn3-c2ccccc2F)C1=O)NCC1CCOC1 (centres unmarked) [Example 75, 2-{3-[1-(2-fluorophenyl)-1H-indazol-4-yl]-2-oxoimidazolidin-1-yl}-N-(tetrahydrofuran-3-ylmethyl)acetamide] | 7.49 µM | 12.1 µM |
| O=C(CN1CCN(c2cccc3c2cnn3-c2ccccc2F)C1=O)N[C@H]1CCOC1 [Example 87, 2-{3-[1-(2-fluorophenyl)-1H-indazol-4-yl]-2-oxoimidazolidin-1-yl}-N-[(3S)-tetrahydrofuran-3-yl]acetamide] | 2.46 µM | 5.56 µM |
| O=C(CN1CCN(c2cccc3c2cnn3-c2cccc(OC(F)(F)F)c2)C1=O)N1CC[C@H](F)C1 [Example 88, 1-{2-[(3S)-3-fluoropyrrolidin-1-yl]-2-oxoethyl}-3-{1-[3-(trifluoromethoxy)phenyl]-1H-indazol-4-yl}imidazolidin-2-one] | 0.351 µM | 1.37 µM |
| CCN(CC)C(=O)CN1CCN(c2cccc3c2cnn3-c2ccccc2F)C1=O [Example 93, N,N-diethyl-2-{3-[1-(2-fluorophenyl)-1H-indazol-4-yl]-2-oxoimidazolidin-1-yl}acetamide] | 10.7 µM | 5.18 µM |
| O=C(CN1CCN(c2cccc3c2cnn3-c2ccccc2F)C1=O)N1CC2(COC2)C1 [Example 100, 1-[1-(2-fluorophenyl)-1H-indazol-4-yl]-3-[2-(2-oxa-6-azaspiro[3.3]hept-6-yl)-2-oxoethyl]imidazolidin-2-one] | 5.01 µM | 20 µM |
| CCCS(=O)(=O)N1CC(N2CCN(c3cccc4c3cnn4-c3ccccc3F)C2=O)C1 [Example 274, 1-[1-(2-fluorophenyl)-1H-indazol-4-yl]-3-[1-(propylsulfonyl)azetidin-3-yl]imidazolidin-2-one] | 2.74 µM | 1.4 µM |
| O=C1N(c2cccc3c2cnn3-c2ccccc2F)CCN1[C@H]1CCCC[C@@H]1OCc1ccccc1 [Example 275, 1-[(1S,2S)-2-(benzyloxy)cyclohexyl]-3-[1-(2-fluorophenyl)-1H-indazol-4-yl]imidazolidin-2-one] | 1.41 µM | 3.7 µM |
| O=C1N(c2cccc3c2cnn3-c2ccccc2F)CCN1[C@H]1CCCC[C@@H]1O [Example 276, 1-[1-(2-fluorophenyl)-1H-indazol-4-yl]-3-[(1S,2S)-2-hydroxycyclohexyl]imidazolidin-2-one] | 15.1 µM | 6.44 µM |
| CO[C@H]1CCCC[C@@H]1N1CCN(c2cccc3c2cnn3-c2ccccc2F)C1=O [Example 279, 1-[1-(2-fluorophenyl)-1H-indazol-4-yl]-3-[(1S,2S)-2-methoxycyclohexyl]imidazolidin-2-one] | 1.86 µM | 5.64 µM |
| CC(C)CO[C@H]1CCCC[C@@H]1N1CCN(c2cccc3c2cnn3-c2ccccc2F)C1=O [Example 280, 1-[1-(2-fluorophenyl)-1H-indazol-4-yl]-3-[(1S,2S)-2-isobutoxycyclohexyl]imidazolidin-2-one] | 0.518 µM | 10.8 µM |
| O=C1CCCC[C@@H]1N1CCN(c2cccc3c2cnn3-c2ccccc2F)C1=O [Example 281, 1-[1-(2-fluorophenyl)-1H-indazol-4-yl]-3-[(1S)-2-oxocyclohexyl]imidazolidin-2-one] | 11.6 µM | 12.4 µM |
| O=C1N(c2cccc3c2cnn3-c2ccccc2F)CCN1C1CN(S(=O)(=O)CC2CC2(Cl)Cl)C1 (centres unmarked) [Example 282, 1-(1-{[(2,2-dichlorocyclopropyl)methyl]sulfonyl}azetidin-3-yl)-3-[1-(2-fluorophenyl)-1H-indazol-4-yl]imidazolidin-2-one] | 2.49 µM | 1.41 µM |
| O=C1N(c2cccc3c2cnn3-c2ccccc2F)CCN1C1CN(S(=O)(=O)CC2CC2)C1 [Example 283, 1-{1-[(cyclopropylmethyl)sulfonyl]azetidin-3-yl}-3-[1-(2-fluorophenyl)-1H-indazol-4-yl]imidazolidin-2-one] | 2.55 µM | 2.21 µM |
| O=C1N(c2cccc3c2cnn3-c2ccccc2F)CCN1C1CN(S(=O)(=O)CC(F)(F)F)C1 [Example 284, 1-[1-(2-fluorophenyl)-1H-indazol-4-yl]-3-{1-[(2,2,2-trifluoroethyl)sulfonyl]azetidin-3-yl}imidazolidin-2-one] | 2.43 µM | 1.19 µM |
| CC(C)CS(=O)(=O)N1CC(N2CCN(c3cccc4c3cnn4-c3ccccc3F)C2=O)C1 [Example 285, 1-[1-(2-fluorophenyl)-1H-indazol-4-yl]-3-[1-(isobutylsulfonyl)azetidin-3-yl]imidazolidin-2-one] | 2.52 µM | 1.47 µM |
| CC(C)(C)OC(=O)CN1CCN(c2cccc3c2cnn3-c2ccccc2F)C1=O [Example 286, tert-butyl {3-[1-(2-fluorophenyl)-1H-indazol-4-yl]-2-oxoimidazolidin-1-yl}acetate] | 3.17 µM | 3 µM |
| CC(C)(C)OC(=O)CCN1CCN(c2cccc3c2cnn3-c2ccccc2F)C1=O [Example 289, tert-butyl 3-{3-[1-(2-fluorophenyl)-1H-indazol-4-yl]-2-oxoimidazolidin-1-yl}propanoate] | 2.71 µM | 2.05 µM |
| O=C(CN1CCN(c2cccc3c2cnn3-c2ccccc2F)C1=O)N1CCC[C@H](O)C1 [Example 290, 1-[1-(2-fluorophenyl)-1H-indazol-4-yl]-3-{2-[(3S)-3-hydroxypiperidin-1-yl]-2-oxoethyl}imidazolidin-2-one] | 4.15 µM | 13.5 µM |
| O=C(CN1CCN(c2cccc3c2cnn3-c2ccccc2F)C1=O)N1CC(O)C1 [Example 291, 1-[1-(2-fluorophenyl)-1H-indazol-4-yl]-3-[2-(3-hydroxyazetidin-1-yl)-2-oxoethyl]imidazolidin-2-one] | 5.9 µM | 13.1 µM |
| O=C(CCN1CCN(c2cccc3c2cnn3-c2ccccc2F)C1=O)N1CC[C@H](F)C1 [Example 292, 1-[1-(2-fluorophenyl)-1H-indazol-4-yl]-3-{3-[(3S)-3-fluoropyrrolidin-1-yl]-3-oxopropyl}imidazolidin-2-one] | 2.96 µM | 4.44 µM |
| O=C(CN1CCN(c2cccc3c2cnn3-c2ccccc2F)C1=O)N1CCOCC1 [Example 293, 1-[1-(2-fluorophenyl)-1H-indazol-4-yl]-3-[2-(morpholin-4-yl)-2-oxoethyl]imidazolidin-2-one] | 3.67 µM | 17.6 µM |
| CO[C@H]1C[C@H](NC(=O)CN2CCN(c3cccc4c3cnn4-c3ccccc3F)C2=O)C1 [Example 326, 2-{3-[1-(2-fluorophenyl)-1H-indazol-4-yl]-2-oxoimidazolidin-1-yl}-N-(trans-3-methoxycyclobutyl)acetamide] |  | 5.25 µM |
| CN1CCN(c2cccc3c2cnn3-c2ccccc2F)C1=O [Example 344, 1-[1-(2-fluorophenyl)-1H-indazol-4-yl]-3-methylimidazolidin-2-one] |  | 7.38 µM |
